In the NIST ThermoML archive (doi:10.1021/je5000617):
Numbers after ± are expanded uncertainties.

Settings: for mass density / speed of sound / viscosity: 101.33 kPa, Liquid; for viscosity: Concentric cylinders viscometry

SMILES | surface tension liquid-gas (303 K) [mN/m] | mass density (303 K) [kg/m3] | speed of sound (303 K) [m/s] | surface tension liquid-gas (308 K) [mN/m] | mass density (308 K) [kg/m3] | speed of sound (308 K) [m/s] | surface tension liquid-gas (313 K) [mN/m] | mass density (313 K) [kg/m3] | speed of sound (313 K) [m/s] | surface tension liquid-gas (318 K) [mN/m] | mass density (318 K) [kg/m3] | speed of sound (318 K) [m/s] | surface tension liquid-gas (323 K) [mN/m] | mass density (323 K) [kg/m3] | speed of sound (323 K) [m/s] | surface tension liquid-gas (328 K) [mN/m] | mass density (328 K) [kg/m3] | speed of sound (328 K) [m/s] | mass density (333 K) [kg/m3] | speed of sound (333 K) [m/s] | other results
CCCCn1cc[n+](C)c1.F[P-](F)(F)(F)(F)F [1-butyl-3-methylimidazolium hexafluorophosphate] | 45.3 ± 3.4 | 1359.4 ± 5.2 | 1433 ± 12 | 45 ± 3.4 | 1358.2 ± 5.4 | 1417 ± 12 | 44.7 ± 3.4 | 1353.2 ± 5.5 | 1408 ± 12 | 44.4 ± 3.4 | 1349.8 ± 5.6 | 1395 ± 12 | 44.1 ± 3.4 | 1346.8 ± 5.7 | 1384 ± 12 | 43.8 ± 3.4 | 1343.8 ± 5.9 | 1374 ± 12 | 1340.6 ± 6 | 1363 ± 12 | viscosity (303 K): 190 ± 5 mPa·s; viscosity (308 K): 150 ± 4 mPa·s; viscosity (313 K): 132 ± 3 mPa·s; viscosity (318 K): 106 ± 3 mPa·s; viscosity (323 K): 90 ± 2 mPa·s; viscosity (328 K): 75 ± 2 mPa·s; surface tension liquid-gas (333 K): 43.5 ± 3.3 mN/m; viscosity (333 K): 58 ± 2 mPa·s
CCn1cc[n+](C)c1.CS(=O)(=O)[O-] [1-ethyl-3-methylimidazolium methanesulfonate] | 47.8 ± 3.8 | 1247 ± 14 | 1796 ± 15 | 47.4 ± 3.7 | 1243.2 ± 14 | 1778 ± 15 | 47 ± 3.7 | 1240.2 ± 14 | 1764 ± 15 | 46.7 ± 3.7 | 1237.6 ± 14 | 1752 ± 15 | 46.1 ± 3.7 | 1234.4 ± 14 | 1738 ± 15 | 45.7 ± 3.6 | 1232.4 ± 14 | 1727 ± 15 | 1230.2 ± 14 | 1708 ± 15 | viscosity (303 K): 120 ± 20 mPa·s; viscosity (308 K): 87 ± 20 mPa·s; viscosity (313 K): 63 ± 20 mPa·s; viscosity (318 K): 48 ± 20 mPa·s; viscosity (323 K): 37 mPa·s; viscosity (328 K): 29 mPa·s; surface tension liquid-gas (333 K): 45.4 ± 3.6 mN/m; viscosity (333 K): 20 mPa·s
CCCCCCCCOS(=O)(=O)[O-].CCCCn1cc[n+](C)c1 [1-butyl-3-methylimidazolium octyl sulfate] | 35.7 ± 3 | 1060.2 ± 10 | 1461 ± 13 | 35.2 ± 2.9 | 1057.8 ± 11 | 1450 ± 13 | 34.9 ± 2.9 | 1053.2 ± 11 | 1430 ± 13 | 34.7 ± 2.9 | 1050.8 ± 11 | 1419 ± 13 | 34.3 ± 2.9 | 1046.4 ± 11 | 1406 ± 13 | 33.9 ± 2.8 | 1042.2 ± 11 | 1391 ± 13 | 1039.8 ± 11 | 1380 ± 13 | –
